Measurements from ChEMBL document CHEMBL5303304, “EUbOPEN Chemogenomics Library - IncuCyte” (2023).

Experiments:
Format in all cases: toxicity, cell-based
HEK-293T = experiment: Incucyte cell viability with HEK293T; settings: human, 10 µM, compound concentration 10 uM
Fibroblast = experiment: Incucyte cell viability with human fibroblast; settings: 10 µM, compound concentration 10 uM
U2OS = experiment: Incucyte cell viability with U2OS; settings: human, 10 µM, compound concentration 10 uM
Further: unitless GR value; below 1 slowed growth and below 0 cell loss.

## O=C(O)c1cc(-c2ccccc2)ccc1O
HEK-293T; 0 h, replicate number 1
  Growth Rate: -0.37
HEK-293T; 24 h, replicate number 2
  Growth Rate: 0.94
Fibroblast; 6 h, replicate number 2
  Growth Rate: -0.01
Fibroblast; 12 h, replicate number 1
  Growth Rate: 0.95
Fibroblast; 12 h, replicate number 2
  Growth Rate: 0.44
Fibroblast; 18 h, replicate number 1
  Growth Rate: 0.96
Fibroblast; 18 h, replicate number 2
  Growth Rate: 0.67
Fibroblast; 24 h, replicate number 2
  Growth Rate: 0.79
U2OS; 0 h, replicate number 1
  Growth Rate: -0.47
U2OS; 0 h, replicate number 2
  Growth Rate: -0.88
U2OS; 6 h, replicate number 1
  Growth Rate: 0.63
U2OS; 12 h, replicate number 1
  Growth Rate: 0.69
U2OS; 18 h, replicate number 1
  Growth Rate: 0.88
U2OS; 24 h, replicate number 1
  Growth Rate: 0.87

## CC(C=CC1=C(C)CCCC1(C)C)=CC=CC(C)=CC(=O)O
HEK-293T; 0 h, replicate number 1
  Growth Rate: 0.11
HEK-293T; 0 h, replicate number 2
  Growth Rate: -0.77
HEK-293T; 6 h, replicate number 2
  Growth Rate: 0.82
HEK-293T; 12 h, replicate number 2
  Growth Rate: 0.99
HEK-293T; 18 h, replicate number 1
  Growth Rate: 0.94
HEK-293T; 18 h, replicate number 2
  Growth Rate: 0.73
HEK-293T; 24 h, replicate number 1
  Growth Rate: 0.95
HEK-293T; 24 h, replicate number 2
  Growth Rate: 0.58
Fibroblast; 0 h, replicate number 2
  Growth Rate: 0.82
Fibroblast; 6 h, replicate number 2
  Growth Rate: 0.99
Fibroblast; 12 h, replicate number 2
  Growth Rate: 0.99
U2OS; 0 h, replicate number 1
  Growth Rate: 0.58
U2OS; 0 h, replicate number 2
  Growth Rate: 0.8
U2OS; 6 h, replicate number 1
  Growth Rate: 0.77
U2OS; 6 h, replicate number 2
  Growth Rate: 0.93
U2OS; 12 h, replicate number 1
  Growth Rate: 0.3
U2OS; 18 h, replicate number 1
  Growth Rate: 0.67
U2OS; 24 h, replicate number 1
  Growth Rate: 0.87
U2OS; 24 h, replicate number 2
  Growth Rate: 0.99

## COc1ccccc1S(=O)(=O)Nc1ccc2c(c1)CN(C)C(=O)N2
HEK-293T; 0 h, replicate number 1
  Growth Rate: 0.51
HEK-293T; 0 h, replicate number 2
  Growth Rate: -0.37
HEK-293T; 18 h, replicate number 2
  Growth Rate: 0.98
HEK-293T; 24 h, replicate number 2
  Growth Rate: 0.9
Fibroblast; 0 h, replicate number 2
  Growth Rate: 0.57
Fibroblast; 6 h, replicate number 1
  Growth Rate: 0.3
Fibroblast; 6 h, replicate number 2
  Growth Rate: -0.15
Fibroblast; 12 h, replicate number 1
  Growth Rate: 0.4
Fibroblast; 12 h, replicate number 2
  Growth Rate: 0.42
Fibroblast; 18 h, replicate number 1
  Growth Rate: 0.37
Fibroblast; 18 h, replicate number 2
  Growth Rate: 0.7
Fibroblast; 24 h, replicate number 1
  Growth Rate: 0.79
U2OS; 0 h, replicate number 1
  Growth Rate: -0.66
U2OS; 0 h, replicate number 2
  Growth Rate: -0.75
U2OS; 6 h, replicate number 1
  Growth Rate: 0.81
U2OS; 6 h, replicate number 2
  Growth Rate: 0.5
U2OS; 12 h, replicate number 1
  Growth Rate: 0.83

## CNc1ncc2cc(-c3ccc(-c4cccc(C)n4)cc3Cl)c(=O)n(C[C@H]3OC[C@H](N)CO3)c2n1
HEK-293T; 0 h, replicate number 1
  Growth Rate: -0.96
Fibroblast; 0 h, replicate number 1
  Growth Rate: 0.26
Fibroblast; 0 h, replicate number 2
  Growth Rate: -0.44
Fibroblast; 6 h, replicate number 2
  Growth Rate: 0.69
Fibroblast; 12 h, replicate number 1
  Growth Rate: 0.36
Fibroblast; 12 h, replicate number 2
  Growth Rate: 0.19
Fibroblast; 18 h, replicate number 1
  Growth Rate: 0.37
Fibroblast; 18 h, replicate number 2
  Growth Rate: 0.14
Fibroblast; 24 h, replicate number 1
  Growth Rate: 0.41
Fibroblast; 24 h, replicate number 2
  Growth Rate: 0.16
U2OS; 0 h, replicate number 1
  Growth Rate: 0.31
U2OS; 6 h, replicate number 2
  Growth Rate: 0.37
U2OS; 12 h, replicate number 2
  Growth Rate: 0.83
U2OS; 18 h, replicate number 2
  Growth Rate: 0.77
U2OS; 24 h, replicate number 2
  Growth Rate: 0.53

## CN1CCN(c2ccc(-n3cc(-c4ccncc4OCC4CCNCC4)cn3)cc2)CC1
HEK-293T; 0 h, replicate number 1
  Growth Rate: -0.6
HEK-293T; 6 h, replicate number 1
  Growth Rate: -0.15
HEK-293T; 6 h, replicate number 2
  Growth Rate: -0.17
HEK-293T; 12 h, replicate number 1
  Growth Rate: 0.02
HEK-293T; 12 h, replicate number 2
  Growth Rate: 0.09
HEK-293T; 18 h, replicate number 1
  Growth Rate: 0.14
HEK-293T; 18 h, replicate number 2
  Growth Rate: 0.13
HEK-293T; 24 h, replicate number 1
  Growth Rate: 0.11
HEK-293T; 24 h, replicate number 2
  Growth Rate: 0.07
Fibroblast; 0 h, replicate number 1
  Growth Rate: 0.3
Fibroblast; 0 h, replicate number 2
  Growth Rate: 0.21
Fibroblast; 6 h, replicate number 1
  Growth Rate: 0.93
Fibroblast; 6 h, replicate number 2
  Growth Rate: 0.33
Fibroblast; 12 h, replicate number 1
  Growth Rate: 0.81
Fibroblast; 12 h, replicate number 2
  Growth Rate: 0.22
Fibroblast; 18 h, replicate number 1
  Growth Rate: 0.68
Fibroblast; 18 h, replicate number 2
  Growth Rate: 0.19
Fibroblast; 24 h, replicate number 1
  Growth Rate: 0.62
Fibroblast; 24 h, replicate number 2
  Growth Rate: 0.28
U2OS; 0 h, replicate number 2
  Growth Rate: 0.97
U2OS; 6 h, replicate number 2
  Growth Rate: 0.51
U2OS; 12 h, replicate number 1
  Growth Rate: 0.92
U2OS; 12 h, replicate number 2
  Growth Rate: 0.4
U2OS; 18 h, replicate number 1
  Growth Rate: 0.69
U2OS; 18 h, replicate number 2
  Growth Rate: 0.31
U2OS; 24 h, replicate number 1
  Growth Rate: 0.53
U2OS; 24 h, replicate number 2
  Growth Rate: 0.16

## NC(=O)C1CCCc2c1[nH]c1ccc(Cl)cc21 (stereo not given)
HEK-293T; 0 h, replicate number 1
  Growth Rate: 0.75
HEK-293T; 0 h, replicate number 2
  Growth Rate: -0.98
HEK-293T; 6 h, replicate number 2
  Growth Rate: 0.22
HEK-293T; 12 h, replicate number 2
  Growth Rate: 0.53
HEK-293T; 18 h, replicate number 2
  Growth Rate: 0.66
HEK-293T; 24 h, replicate number 2
  Growth Rate: 0.79
Fibroblast; 0 h, replicate number 2
  Growth Rate: 0.51
Fibroblast; 12 h, replicate number 2
  Growth Rate: 0.9
Fibroblast; 24 h, replicate number 2
  Growth Rate: 0.88
U2OS; 0 h, replicate number 1
  Growth Rate: 0.85
U2OS; 0 h, replicate number 2
  Growth Rate: 0.68
U2OS; 6 h, replicate number 1
  Growth Rate: 0.7
U2OS; 12 h, replicate number 1
  Growth Rate: 1
U2OS; 18 h, replicate number 1
  Growth Rate: 0.88
U2OS; 24 h, replicate number 1
  Growth Rate: 1
U2OS; 24 h, replicate number 2
  Growth Rate: 0.96

## Cc1ncsc1-c1ccc(CNC(=O)[C@@H]2C[C@@H](O)CN2C(=O)[C@@H](NC(=O)CCCCNC(=O)c2ccc(-c3ccc(N4CCN(C)CC4)c(NC(=O)c4c[nH]c(=O)cc4C(F)(F)F)c3)cc2)C(C)(C)C)cc1
HEK-293T; 0 h, replicate number 1
  Growth Rate: -0.12
HEK-293T; 6 h, replicate number 2
  Growth Rate: 0.8
HEK-293T; 18 h, replicate number 2
  Growth Rate: 0.86
HEK-293T; 24 h, replicate number 2
  Growth Rate: 0.72
Fibroblast; 0 h, replicate number 1
  Growth Rate: 0.97
Fibroblast; 0 h, replicate number 2
  Growth Rate: 0.64
Fibroblast; 6 h, replicate number 1
  Growth Rate: 0.29
Fibroblast; 12 h, replicate number 1
  Growth Rate: 0.65
Fibroblast; 12 h, replicate number 2
  Growth Rate: 0.74
Fibroblast; 18 h, replicate number 1
  Growth Rate: 0.33
Fibroblast; 18 h, replicate number 2
  Growth Rate: 0.86
Fibroblast; 24 h, replicate number 1
  Growth Rate: 0.46
U2OS; 0 h, replicate number 1
  Growth Rate: 0.71
U2OS; 6 h, replicate number 1
  Growth Rate: 0.86
U2OS; 6 h, replicate number 2
  Growth Rate: 0.89
U2OS; 12 h, replicate number 2
  Growth Rate: 0.84
U2OS; 18 h, replicate number 1
  Growth Rate: 0.96
U2OS; 18 h, replicate number 2
  Growth Rate: 0.79
U2OS; 24 h, replicate number 1
  Growth Rate: 0.61
U2OS; 24 h, replicate number 2
  Growth Rate: 0.71

## O=C(CNCc1cc2ccccc2[nH]1)N[C@H]1CC[C@@H](c2nc3ccccc3[nH]2)CC1
HEK-293T; 0 h, replicate number 1
  Growth Rate: -0.1
HEK-293T; 0 h, replicate number 2
  Growth Rate: -0.87
HEK-293T; 6 h, replicate number 2
  Growth Rate: 0.27
HEK-293T; 12 h, replicate number 2
  Growth Rate: 0.76
HEK-293T; 18 h, replicate number 2
  Growth Rate: 0.77
HEK-293T; 24 h, replicate number 2
  Growth Rate: 0.89
Fibroblast; 0 h, replicate number 2
  Growth Rate: 0.8
Fibroblast; 6 h, replicate number 1
  Growth Rate: 0.9
Fibroblast; 6 h, replicate number 2
  Growth Rate: 0.7
Fibroblast; 12 h, replicate number 1
  Growth Rate: 0.79
Fibroblast; 12 h, replicate number 2
  Growth Rate: 0.69
Fibroblast; 18 h, replicate number 1
  Growth Rate: 0.78
Fibroblast; 24 h, replicate number 1
  Growth Rate: 0.78
U2OS; 0 h, replicate number 1
  Growth Rate: -0.05
U2OS; 6 h, replicate number 1
  Growth Rate: 0.65
U2OS; 6 h, replicate number 2
  Growth Rate: 1
U2OS; 12 h, replicate number 1
  Growth Rate: 0.55
U2OS; 18 h, replicate number 1
  Growth Rate: 0.82
U2OS; 24 h, replicate number 1
  Growth Rate: 0.8

## COc1cc(-c2cncc(-c3ccc(N4CCN(C(C)C)CC4)cc3)c2C)cc(F)c1C(=O)N1CCCC1
HEK-293T; 0 h, replicate number 1
  Growth Rate: -0.5
HEK-293T; 0 h, replicate number 2
  Growth Rate: -0.2
HEK-293T; 24 h, replicate number 2
  Growth Rate: 0.92
Fibroblast; 0 h, replicate number 1
  Growth Rate: -0.08
Fibroblast; 0 h, replicate number 2
  Growth Rate: 0.49
Fibroblast; 6 h, replicate number 2
  Growth Rate: -0.22
Fibroblast; 12 h, replicate number 2
  Growth Rate: 0.11
Fibroblast; 18 h, replicate number 1
  Growth Rate: 0.73
Fibroblast; 18 h, replicate number 2
  Growth Rate: 0.27
Fibroblast; 24 h, replicate number 1
  Growth Rate: 0.76
Fibroblast; 24 h, replicate number 2
  Growth Rate: 0.4
U2OS; 12 h, replicate number 2
  Growth Rate: 1
U2OS; 18 h, replicate number 2
  Growth Rate: 0.99
U2OS; 24 h, replicate number 2
  Growth Rate: 0.89

## CC(=O)O.Cc1cc2c(ncn2C2(C)CN(C(=O)c3ccn(CC4CCN([C@H]5C=CCCCC5)CC4)c3)C2)c(N)n1
HEK-293T; 0 h, replicate number 1
  Growth Rate: -0.66
Fibroblast; 0 h, replicate number 2
  Growth Rate: 0.45
Fibroblast; 6 h, replicate number 2
  Growth Rate: 0.25
Fibroblast; 12 h, replicate number 1
  Growth Rate: 0.9
Fibroblast; 12 h, replicate number 2
  Growth Rate: 0.83
Fibroblast; 18 h, replicate number 1
  Growth Rate: 0.86
Fibroblast; 18 h, replicate number 2
  Growth Rate: 0.98
U2OS; 0 h, replicate number 1
  Growth Rate: 0.51
U2OS; 6 h, replicate number 1
  Growth Rate: 0.96
U2OS; 24 h, replicate number 1
  Growth Rate: 0.75

## CN1CCc2cc(Nc3ncc(C(F)(F)F)c(NCc4cc[nH]n4)n3)ccc2C1
HEK-293T; 0 h, replicate number 1
  Growth Rate: -0.94
HEK-293T; 12 h, replicate number 2
  Growth Rate: 0.73
HEK-293T; 18 h, replicate number 1
  Growth Rate: 0.42
HEK-293T; 18 h, replicate number 2
  Growth Rate: 0.47
HEK-293T; 24 h, replicate number 1
  Growth Rate: 0.29
HEK-293T; 24 h, replicate number 2
  Growth Rate: 0.14
Fibroblast; 0 h, replicate number 1
  Growth Rate: -0.24
Fibroblast; 0 h, replicate number 2
  Growth Rate: -0.64
U2OS; 6 h, replicate number 2
  Growth Rate: 0.87
U2OS; 12 h, replicate number 2
  Growth Rate: 0.56
U2OS; 18 h, replicate number 1
  Growth Rate: 0.84
U2OS; 18 h, replicate number 2
  Growth Rate: 0.37
U2OS; 24 h, replicate number 1
  Growth Rate: 0.58
U2OS; 24 h, replicate number 2
  Growth Rate: 0.22
